Results reported in patent US7164024B2, “Benzimidazolone derivatives” (Banyu Pharmaceutical Co., Ltd., priority 2001, dated 2007).

Tests used:
[1] = molecular target: T1, muscarinic acetylcholine receptors of human m5 (Homo sapiens, UniProt P08912); assay: Test on inhibition of binding to muscarinic receptors (m5); settings: human m5 expressed in CHO cells, 0.2 nM [3H]-N-methylscopolamine, 120 minutes at room temperature
T1 construct: purchased Receptor Biology, Inc; host or cells: CHO cells
T1 sequence (P08912 1-532): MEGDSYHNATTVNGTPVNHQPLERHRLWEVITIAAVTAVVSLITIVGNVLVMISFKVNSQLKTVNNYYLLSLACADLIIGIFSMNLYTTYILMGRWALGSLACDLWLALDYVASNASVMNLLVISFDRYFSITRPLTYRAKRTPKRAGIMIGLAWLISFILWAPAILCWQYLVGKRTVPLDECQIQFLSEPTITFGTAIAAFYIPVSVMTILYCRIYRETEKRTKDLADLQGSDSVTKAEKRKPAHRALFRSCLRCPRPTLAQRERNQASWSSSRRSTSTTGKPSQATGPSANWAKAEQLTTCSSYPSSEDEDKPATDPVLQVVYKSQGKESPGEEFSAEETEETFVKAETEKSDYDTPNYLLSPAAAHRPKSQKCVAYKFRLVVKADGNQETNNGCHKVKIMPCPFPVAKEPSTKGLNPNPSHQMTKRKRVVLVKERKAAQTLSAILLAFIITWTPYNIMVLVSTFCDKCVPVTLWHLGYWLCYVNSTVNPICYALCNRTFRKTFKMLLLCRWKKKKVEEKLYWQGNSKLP
Experimental: (§1) The test was performed according to a modification of the method of Hargreaves, et al. (Br. J. Pharmacol. 107: 494–501, 1992). Namely, muscarinic acetylcholine receptors of human m1, m2, m3, m4 and m5 expressed in CHO cells (Receptor Biology, Inc.) were incubated with 0.2 nM [^3H]-N-methylscopolamine (82Ci/mmol, New England Nuclear, Inc.) and a test compound, either in 0.5 ml of 50 mM Tris-HCI, 10 mM MgCl2, 1 mM EDTA solution (pH 7.4) (human m1, m3 and m5 samples) or in 0.5 ml of 50 mM tris-HCl, 10 mM MgCl2, 1 mM EDTA, 5000 nM GTPγS solution (pH 7.4) (human m2 and m4 samples) for 120 minutes at room temperature (about 20–25° C.), followed by suction filtration over a glass filter (UniFilter plate-GF/C; Packard). Then the filter was washed four times with 1 ml of ice-cooled Tris-HCI buffer and dried at 50° C. for an hour. After adding a scintillator (Microscinti 0; Packard), the radioactivity of [^3H]-N-methylscopolamine binding to the filter was counted with a microplate scintillation counter (TopCount; Packard). Non-specific receptor binding of [^3H]-N-methylscopolamine was measured by adding 1 μM N-methylscopolamine. According to the method of Cheng and Prusoff (Biochem. Pharmacol. 22: 3099–3108, 1973), the binding affinity of each sample compound of the present invention for muscarinic receptors is expressed by inhibition constant (Ki) which is calculated from the concentration (IC50) of the sample compound which achieves 50% inhibition of binding of [^3H]-N-methylscopolamine, the labeled ligand. Smaller inhibition constant (Ki) represents stronger tendency to bind to muscarinic receptors, i.e., a higher binding inhibitory effect.

[2] = molecular target: T2, muscarinic acetylcholine receptors of human m4 (Homo sapiens, UniProt P08173); assay: Test on inhibition of binding to muscarinic receptors (m4); settings: for Ki: human m4 expressed in CHO cells, 0.2 nM [3H]-N-methylscopolamine, 5000 nM GTPγS, 120 minutes at room temperature; for Selectivity (times) m1/m4: ratio of Ki m1 to Ki m4; for Selectivity (times) m2/m4: ratio of Ki m2 to Ki m4; for Selectivity (times) m3/m4: ratio of Ki m3 to Ki m4; for Selectivity (times) m5/m4: ratio of Ki m5 to Ki m4
T2 construct: purchased Receptor Biology, Inc; host or cells: CHO cells
T2 sequence (P08173 1-479): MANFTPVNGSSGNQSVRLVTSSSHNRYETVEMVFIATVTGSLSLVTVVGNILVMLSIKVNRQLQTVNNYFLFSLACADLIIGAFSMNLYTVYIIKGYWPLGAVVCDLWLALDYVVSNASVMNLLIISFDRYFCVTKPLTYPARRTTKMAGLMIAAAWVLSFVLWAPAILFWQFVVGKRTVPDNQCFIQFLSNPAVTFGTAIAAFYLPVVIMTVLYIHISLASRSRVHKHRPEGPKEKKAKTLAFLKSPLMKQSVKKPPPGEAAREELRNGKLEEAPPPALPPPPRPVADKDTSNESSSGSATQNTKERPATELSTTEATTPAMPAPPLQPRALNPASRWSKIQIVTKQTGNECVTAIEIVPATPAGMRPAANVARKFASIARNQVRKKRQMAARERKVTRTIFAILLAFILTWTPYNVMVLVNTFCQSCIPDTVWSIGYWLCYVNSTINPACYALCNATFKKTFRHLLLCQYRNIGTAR
Experimental: as §1

[3] = molecular target: T3, muscarinic acetylcholine receptors of human m1 (Homo sapiens, UniProt P11229); assay: Test on inhibition of binding to muscarinic receptors (m1); settings: human m1 expressed in CHO cells, 0.2 nM [3H]-N-methylscopolamine, 120 minutes at room temperature
T3 construct: purchased Receptor Biology, Inc; host or cells: CHO cells
T3 sequence (P11229 1-460): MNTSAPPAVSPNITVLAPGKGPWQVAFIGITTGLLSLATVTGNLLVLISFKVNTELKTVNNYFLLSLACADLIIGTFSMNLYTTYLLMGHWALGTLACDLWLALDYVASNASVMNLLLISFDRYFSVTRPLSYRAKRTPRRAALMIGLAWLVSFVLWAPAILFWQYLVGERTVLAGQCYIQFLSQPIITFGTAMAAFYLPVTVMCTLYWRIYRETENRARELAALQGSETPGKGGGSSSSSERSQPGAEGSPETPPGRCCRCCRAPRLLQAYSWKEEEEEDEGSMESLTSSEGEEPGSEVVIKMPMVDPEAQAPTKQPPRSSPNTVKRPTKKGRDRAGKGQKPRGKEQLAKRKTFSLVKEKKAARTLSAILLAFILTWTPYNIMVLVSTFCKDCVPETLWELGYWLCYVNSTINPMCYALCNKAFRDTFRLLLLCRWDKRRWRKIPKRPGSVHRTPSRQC
Experimental: as §1

[4] = molecular target: T4, muscarinic acetylcholine receptors of human m2 (Homo sapiens, UniProt P08172); assay: Test on inhibition of binding to muscarinic receptors (m2); settings: human m2 expressed in CHO cells, 0.2 nM [3H]-N-methylscopolamine, 5000 nM GTPγS, 120 minutes at room temperature
T4 construct: purchased Receptor Biology, Inc; host or cells: CHO cells
T4 sequence (P08172 1-466): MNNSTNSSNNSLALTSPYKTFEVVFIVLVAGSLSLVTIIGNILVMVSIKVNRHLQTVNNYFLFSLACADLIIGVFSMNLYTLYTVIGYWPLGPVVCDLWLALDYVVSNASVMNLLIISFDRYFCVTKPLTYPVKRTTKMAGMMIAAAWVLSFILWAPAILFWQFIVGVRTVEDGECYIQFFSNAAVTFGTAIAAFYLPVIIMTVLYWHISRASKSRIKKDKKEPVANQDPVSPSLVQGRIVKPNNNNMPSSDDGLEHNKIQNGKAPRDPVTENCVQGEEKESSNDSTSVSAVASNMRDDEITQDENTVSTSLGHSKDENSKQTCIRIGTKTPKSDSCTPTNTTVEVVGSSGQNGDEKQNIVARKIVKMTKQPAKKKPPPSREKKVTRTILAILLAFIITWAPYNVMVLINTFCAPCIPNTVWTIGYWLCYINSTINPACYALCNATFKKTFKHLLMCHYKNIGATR
Experimental: as §1

[5] = molecular target: T5, muscarinic acetylcholine receptors of human m3 (Homo sapiens, UniProt P20309); assay: Test on inhibition of binding to muscarinic receptors (m3); settings: human m3 expressed in CHO cells, 0.2 nM [3H]-N-methylscopolamine, 120 minutes at room temperature
T5 construct: purchased Receptor Biology, Inc; host or cells: CHO cells
Experimental: as §1

T5 sequence (P20309 whole entry): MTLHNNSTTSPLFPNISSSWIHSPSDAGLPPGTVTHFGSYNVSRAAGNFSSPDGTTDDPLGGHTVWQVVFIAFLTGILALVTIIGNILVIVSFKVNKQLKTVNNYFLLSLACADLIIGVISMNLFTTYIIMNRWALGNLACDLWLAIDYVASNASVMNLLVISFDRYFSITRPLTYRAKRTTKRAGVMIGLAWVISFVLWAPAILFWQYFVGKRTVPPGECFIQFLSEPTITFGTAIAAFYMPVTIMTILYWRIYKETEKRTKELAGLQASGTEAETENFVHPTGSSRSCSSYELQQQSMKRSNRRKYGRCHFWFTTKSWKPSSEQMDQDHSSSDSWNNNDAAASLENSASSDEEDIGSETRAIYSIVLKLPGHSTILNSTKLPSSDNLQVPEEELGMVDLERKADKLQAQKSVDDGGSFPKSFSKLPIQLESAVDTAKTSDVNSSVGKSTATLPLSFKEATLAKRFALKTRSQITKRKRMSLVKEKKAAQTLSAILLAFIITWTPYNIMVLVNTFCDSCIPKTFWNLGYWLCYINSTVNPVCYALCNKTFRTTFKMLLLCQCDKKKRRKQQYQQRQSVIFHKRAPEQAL

Ki [1] [nM]	Ki [2] [nM]	Selectivity (times) m1/m4 [2] [times]	Selectivity (times) m2/m4 [2] [times]	Selectivity (times) m3/m4 [2] [times]	Selectivity (times) m5/m4 [2] [times]	Ki [3] [nM]	Ki [4] [nM]	Ki [5] [nM]	Compound
450	1.7	15	19	1000	270	25	31	1700	O=C(c1cccnc1)N1CCCC(CCN2CCC(n3c(=O)[nH]c4ccccc43)CC2)CC1 (single isomer, unassigned) [Example 9, (S*)-1-[1-[2-[1-(3-pyridylcarbonyl)perhydroazepin-4-yl]ethyl]piperidin-4-yl]-1,3-dihydro-2H-benzimidazol-2-one]
260	4.5	6.1	16	1600	57	28	73	7400	O=C(c1cnccn1)N1CCC(CCN2CCC(n3c(=O)[nH]c4ccccc43)CC2)CC1 [Example 4, 1-[1-[2-[1-(Pyrazinylcarbonyl)piperidin-4-yl]ethyl]piperidin-4-yl]-1,3-dihydro-2H-benzimidazol-2-one]
220	2.3	9.7	11	2000	99	22	24	4500	CC(CN1CCC(n2c(=O)[nH]c3ccccc32)CC1)C1CCN(C(=O)c2cccnc2)CC1 (stereo not drawn) [Example 12, 1-[1-[2-[1-(3-Pyridylcarbonyl)piperidin-4-yl]propyl]piperidin-4-yl]-1,3-dihydro-2H-benzimidazol-2-one]
